Experiments:
Leishmania amazonensis = assay: Antipromastigote activity against Leishmania amazonensis MHOM/BR/77/LTB0016 after 24 hrs by MTT assay; type: functional, organism-based; conditions: MHOM/BR/77/LTB0016, 24 h
Leishmania braziliensis = assay: Antipromastigote activity against Leishmania braziliensis MCAN/BR/98/R619 after 24 hrs by MTT assay; type: functional, organism-based; conditions: MCAN/BR/98/R619, 24 h
[1] = Cytotoxicity against mouse RAW264.7 cells after 24 hrs by MTT assay; type: cell-based

For `N=C(N)c1ccc(OCCCCCOc2ccc(C(=N)N)cc2)cc1` [PENTAMIDINE], the IC50 (Leishmania amazonensis) was 3.38 µM, the IC50 (Leishmania braziliensis) was 13 µM and the CC50 at 24 h [1] was 25.5 µM.

— ChEMBL document CHEMBL2440095, “Synthesis and activity of novel tetrazole compounds and their pyrazole-4-carbonitrile precursors against Leishmania spp” (Bioorg Med Chem Lett, 2013)
